According to ChEMBL document CHEMBL4507293 (2021):

Assays:
[1] = target: Sigma intracellular receptor 2 (Homo sapiens, UniProt Q5BJF2); conditions: Compound concentration 10.0 uM
[2] = target: Dual specificity mitogen-activated protein kinase kinase 3 (Homo sapiens) (UniProt P46734); conditions: Compound concentration 100.0 nM
[3] = target: 1-phosphatidylinositol 3-phosphate 5-kinase (Homo sapiens) (UniProt Q9Y2I7); conditions: Compound concentration 100.0 nM
[4] = target: Leucine-rich repeat serine/threonine-protein kinase 2 (Homo sapiens) (UniProt Q5S007); conditions: Compound concentration 100.0 nM
[5] = target: Myosin light chain kinase (Homo sapiens) (UniProt Q32MK0); conditions: Compound concentration 100.0 nM
[6] = target: Beta-adrenergic receptor kinase 1 (Homo sapiens) (UniProt P25098); conditions: Compound concentration 100.0 nM
[7] = target: Serine/threonine-protein kinase PLK4 (Homo sapiens) (UniProt O00444); conditions: Compound concentration 100.0 nM
[8] = target: Alpha-1B adrenergic receptor (Homo sapiens) (UniProt P35368); conditions: Compound concentration 10.0 uM
[9] = target: Death-associated protein kinase 2 (Homo sapiens) (UniProt Q9UIK4); conditions: Compound concentration 100.0 nM
[10] = target: Serine/threonine-protein kinase pim-1 (Homo sapiens) (UniProt P11309); conditions: Compound concentration 100.0 nM
[11] = target: Mitogen-activated protein kinase kinase kinase kinase 5 (Homo sapiens) (UniProt Q9Y4K4); conditions: Compound concentration 100.0 nM
[12] = target: Activin receptor type-1B (Homo sapiens) (UniProt P36896); conditions: Compound concentration 100.0 nM
[13] = target: Serine/threonine-protein kinase tousled-like 2 (Homo sapiens) (UniProt Q86UE8); conditions: Compound concentration 100.0 nM
[14] = target: Uncharacterized serine/threonine-protein kinase SBK3 (Homo sapiens) (UniProt P0C264); conditions: Compound concentration 100.0 nM
[15] = target: Mitogen-activated protein kinase 11 (Homo sapiens) (UniProt Q15759); conditions: Compound concentration 100.0 nM
[16] = target: Serine/threonine-protein kinase Sgk3 (Homo sapiens) (UniProt Q96BR1); conditions: Compound concentration 100.0 nM
[17] = target: Serine/threonine-protein kinase RIO2 (Homo sapiens) (UniProt Q9BVS4); conditions: Compound concentration 100.0 nM
[18] = target: Serine/threonine-protein kinase tousled-like 1 (Homo sapiens) (UniProt Q9UKI8); conditions: Compound concentration 100.0 nM
[19] = target: Mast/stem cell growth factor receptor Kit (Homo sapiens) (UniProt P10721); conditions: Compound concentration 100.0 nM
[20] = target: Serine/threonine-protein kinase mTOR (Homo sapiens) (UniProt P42345); conditions: Compound concentration 100.0 nM
[21] = target: Tyrosine-protein kinase ZAP-70 (Homo sapiens) (UniProt P43403); conditions: Compound concentration 100.0 nM
[22] = target: Tyrosine-protein kinase receptor TYRO3 (Homo sapiens) (UniProt Q06418); conditions: Compound concentration 100.0 nM
[23] = target: Mitogen-activated protein kinase 13 (Homo sapiens) (UniProt O15264); conditions: Compound concentration 100.0 nM
[24] = target: Interleukin-1 receptor-associated kinase 1 (Homo sapiens) (UniProt P51617); conditions: Compound concentration 100.0 nM
[25] = target: Serine/threonine-protein kinase 33 (Homo sapiens) (UniProt Q9BYT3); conditions: Compound concentration 100.0 nM
[26] = target: Beta-1 adrenergic receptor (Homo sapiens) (UniProt P08588); conditions: Compound concentration 10.0 uM
[27] = target: Ephrin type-A receptor 1 (Homo sapiens) (UniProt P21709); conditions: Compound concentration 100.0 nM
[28] = target: Cyclin-dependent kinase 13 (Homo sapiens) (UniProt Q14004); conditions: Compound concentration 100.0 nM
[29] = target: Serine/threonine-protein kinase Nek11 (Homo sapiens) (UniProt Q8NG66); conditions: Compound concentration 100.0 nM
[30] = target: Tyrosine-protein kinase ABL1 (Homo sapiens) (UniProt P00519); conditions: Compound concentration 100.0 nM
[31] = test system: Receptor-type tyrosine-protein kinase FLT3 (Homo sapiens), P36888 [UNDEFINED MUTATION]; conditions: Compound concentration 100.0 nM
[32] = target: Ribosomal protein S6 kinase alpha-4 (Homo sapiens) (UniProt O75676); conditions: Compound concentration 100.0 nM
[33] = target: LIM domain kinase 1 (Homo sapiens) (UniProt P53667); conditions: Compound concentration 100.0 nM
[34] = target: Cyclin-dependent kinase 11B (Homo sapiens) (UniProt P21127); conditions: Compound concentration 100.0 nM
[35] = target: cGMP-dependent protein kinase 2 (Homo sapiens) (UniProt Q13237); conditions: Compound concentration 100.0 nM
[36] = target: Casein kinase I isoform gamma-3 (Homo sapiens) (UniProt Q9Y6M4); conditions: Compound concentration 100.0 nM
[37] = test system: Phosphatidylinositol 4,5-bisphosphate 3-kinase catalytic subunit alpha isoform (Homo sapiens), P42336 [I800L]; conditions: Compound concentration 100.0 nM
[38] = target: RAC-beta serine/threonine-protein kinase (Homo sapiens) (UniProt P31751); conditions: Compound concentration 100.0 nM
[39] = target: Serine/threonine-protein kinase MAK (Homo sapiens) (UniProt P20794); conditions: Compound concentration 100.0 nM
[40] = target: Mitogen-activated protein kinase 10 (Homo sapiens) (UniProt P53779); conditions: Compound concentration 100.0 nM
[41] = target: Calcium/calmodulin-dependent protein kinase type II subunit gamma (Homo sapiens) (UniProt Q13555); conditions: Compound concentration 100.0 nM
[42] = target: Activin receptor type-2B (Homo sapiens) (UniProt Q13705); conditions: Compound concentration 100.0 nM
[43] = target: Cyclin-dependent kinase 2 (Homo sapiens) (UniProt P24941); conditions: Compound concentration 100.0 nM
[44] = test system: Tyrosine-protein kinase ABL1 (Homo sapiens), P00519 [E255K]; conditions: Compound concentration 100.0 nM
[45] = target: Mitogen-activated protein kinase kinase kinase 7 (Homo sapiens) (UniProt O43318); conditions: Compound concentration 100.0 nM

Chain of Tyrosine-protein kinase ZAP-70 (Homo sapiens) (P43403 whole entry): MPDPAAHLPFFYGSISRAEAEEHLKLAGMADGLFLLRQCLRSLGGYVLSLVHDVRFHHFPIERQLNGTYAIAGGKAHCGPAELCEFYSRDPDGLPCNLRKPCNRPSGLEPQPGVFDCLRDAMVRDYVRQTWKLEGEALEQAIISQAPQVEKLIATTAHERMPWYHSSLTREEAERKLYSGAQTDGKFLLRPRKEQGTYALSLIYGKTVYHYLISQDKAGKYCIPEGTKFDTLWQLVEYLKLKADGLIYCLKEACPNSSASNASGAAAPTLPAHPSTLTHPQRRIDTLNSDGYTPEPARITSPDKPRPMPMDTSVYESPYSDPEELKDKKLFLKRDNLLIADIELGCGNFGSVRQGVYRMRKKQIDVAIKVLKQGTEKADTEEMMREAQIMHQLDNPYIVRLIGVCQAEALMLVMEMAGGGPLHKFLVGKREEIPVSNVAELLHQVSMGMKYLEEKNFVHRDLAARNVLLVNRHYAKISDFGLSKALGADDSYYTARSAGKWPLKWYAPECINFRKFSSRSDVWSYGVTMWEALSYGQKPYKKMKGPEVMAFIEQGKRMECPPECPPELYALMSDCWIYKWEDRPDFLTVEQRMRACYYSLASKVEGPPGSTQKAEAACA
Chain of Tyrosine-protein kinase ABL1 (Homo sapiens) (P00519 whole entry): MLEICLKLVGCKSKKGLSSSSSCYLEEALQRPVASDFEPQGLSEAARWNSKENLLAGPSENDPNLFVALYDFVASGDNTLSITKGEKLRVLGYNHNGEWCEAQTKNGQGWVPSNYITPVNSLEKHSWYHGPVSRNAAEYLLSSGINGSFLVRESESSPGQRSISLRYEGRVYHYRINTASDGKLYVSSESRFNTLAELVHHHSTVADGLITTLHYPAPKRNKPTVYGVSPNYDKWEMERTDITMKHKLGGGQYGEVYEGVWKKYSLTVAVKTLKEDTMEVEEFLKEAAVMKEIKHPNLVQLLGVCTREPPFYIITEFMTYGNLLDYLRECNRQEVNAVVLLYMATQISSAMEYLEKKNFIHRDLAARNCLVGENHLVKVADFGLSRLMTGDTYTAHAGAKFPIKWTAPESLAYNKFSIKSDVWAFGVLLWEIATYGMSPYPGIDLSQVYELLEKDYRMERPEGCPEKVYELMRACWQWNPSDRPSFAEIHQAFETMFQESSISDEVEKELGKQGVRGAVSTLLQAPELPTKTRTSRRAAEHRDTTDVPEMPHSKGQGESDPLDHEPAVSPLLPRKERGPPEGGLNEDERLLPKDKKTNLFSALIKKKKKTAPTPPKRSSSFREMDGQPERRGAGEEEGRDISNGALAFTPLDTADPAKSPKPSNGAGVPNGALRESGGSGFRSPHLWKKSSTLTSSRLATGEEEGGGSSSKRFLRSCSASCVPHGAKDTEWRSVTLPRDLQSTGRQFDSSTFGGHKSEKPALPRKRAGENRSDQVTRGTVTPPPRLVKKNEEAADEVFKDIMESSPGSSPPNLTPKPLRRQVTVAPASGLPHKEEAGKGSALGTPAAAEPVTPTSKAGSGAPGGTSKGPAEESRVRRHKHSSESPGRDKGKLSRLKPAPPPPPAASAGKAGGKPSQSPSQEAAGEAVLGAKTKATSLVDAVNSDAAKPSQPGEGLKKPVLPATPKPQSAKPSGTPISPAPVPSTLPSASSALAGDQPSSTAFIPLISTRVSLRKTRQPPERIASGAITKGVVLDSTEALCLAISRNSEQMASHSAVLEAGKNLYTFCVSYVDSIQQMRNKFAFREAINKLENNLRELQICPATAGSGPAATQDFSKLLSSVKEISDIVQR
Chain of Serine/threonine-protein kinase RIO2 (Homo sapiens) (Q9BVS4 whole entry, looked up): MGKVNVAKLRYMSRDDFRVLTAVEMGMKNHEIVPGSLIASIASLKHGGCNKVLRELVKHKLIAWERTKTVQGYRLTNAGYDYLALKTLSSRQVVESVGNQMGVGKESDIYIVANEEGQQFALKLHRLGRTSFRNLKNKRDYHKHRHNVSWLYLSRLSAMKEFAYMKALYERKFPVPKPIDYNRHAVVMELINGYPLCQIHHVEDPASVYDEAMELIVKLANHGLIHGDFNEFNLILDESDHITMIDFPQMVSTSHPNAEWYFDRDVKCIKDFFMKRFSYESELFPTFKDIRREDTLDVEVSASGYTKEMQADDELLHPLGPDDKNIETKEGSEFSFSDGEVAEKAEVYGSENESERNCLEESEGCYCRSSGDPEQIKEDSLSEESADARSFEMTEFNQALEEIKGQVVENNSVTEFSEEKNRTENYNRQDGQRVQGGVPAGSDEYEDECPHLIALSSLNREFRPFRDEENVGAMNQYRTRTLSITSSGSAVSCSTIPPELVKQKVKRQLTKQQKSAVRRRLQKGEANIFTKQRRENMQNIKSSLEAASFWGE
Chain of Uncharacterized serine/threonine-protein kinase SBK3 (Homo sapiens) (P0C264 whole entry): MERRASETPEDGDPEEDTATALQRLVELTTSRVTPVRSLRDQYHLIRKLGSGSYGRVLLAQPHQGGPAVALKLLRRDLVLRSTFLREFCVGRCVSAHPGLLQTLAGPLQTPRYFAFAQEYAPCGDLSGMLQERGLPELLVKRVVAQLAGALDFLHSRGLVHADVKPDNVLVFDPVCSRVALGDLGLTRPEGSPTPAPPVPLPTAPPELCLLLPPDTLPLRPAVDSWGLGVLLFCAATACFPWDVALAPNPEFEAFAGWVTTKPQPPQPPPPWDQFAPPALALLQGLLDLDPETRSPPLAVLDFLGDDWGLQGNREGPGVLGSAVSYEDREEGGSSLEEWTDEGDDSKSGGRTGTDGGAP
Chain of Cyclin-dependent kinase 13 (Homo sapiens) (Q14004 whole entry, looked up): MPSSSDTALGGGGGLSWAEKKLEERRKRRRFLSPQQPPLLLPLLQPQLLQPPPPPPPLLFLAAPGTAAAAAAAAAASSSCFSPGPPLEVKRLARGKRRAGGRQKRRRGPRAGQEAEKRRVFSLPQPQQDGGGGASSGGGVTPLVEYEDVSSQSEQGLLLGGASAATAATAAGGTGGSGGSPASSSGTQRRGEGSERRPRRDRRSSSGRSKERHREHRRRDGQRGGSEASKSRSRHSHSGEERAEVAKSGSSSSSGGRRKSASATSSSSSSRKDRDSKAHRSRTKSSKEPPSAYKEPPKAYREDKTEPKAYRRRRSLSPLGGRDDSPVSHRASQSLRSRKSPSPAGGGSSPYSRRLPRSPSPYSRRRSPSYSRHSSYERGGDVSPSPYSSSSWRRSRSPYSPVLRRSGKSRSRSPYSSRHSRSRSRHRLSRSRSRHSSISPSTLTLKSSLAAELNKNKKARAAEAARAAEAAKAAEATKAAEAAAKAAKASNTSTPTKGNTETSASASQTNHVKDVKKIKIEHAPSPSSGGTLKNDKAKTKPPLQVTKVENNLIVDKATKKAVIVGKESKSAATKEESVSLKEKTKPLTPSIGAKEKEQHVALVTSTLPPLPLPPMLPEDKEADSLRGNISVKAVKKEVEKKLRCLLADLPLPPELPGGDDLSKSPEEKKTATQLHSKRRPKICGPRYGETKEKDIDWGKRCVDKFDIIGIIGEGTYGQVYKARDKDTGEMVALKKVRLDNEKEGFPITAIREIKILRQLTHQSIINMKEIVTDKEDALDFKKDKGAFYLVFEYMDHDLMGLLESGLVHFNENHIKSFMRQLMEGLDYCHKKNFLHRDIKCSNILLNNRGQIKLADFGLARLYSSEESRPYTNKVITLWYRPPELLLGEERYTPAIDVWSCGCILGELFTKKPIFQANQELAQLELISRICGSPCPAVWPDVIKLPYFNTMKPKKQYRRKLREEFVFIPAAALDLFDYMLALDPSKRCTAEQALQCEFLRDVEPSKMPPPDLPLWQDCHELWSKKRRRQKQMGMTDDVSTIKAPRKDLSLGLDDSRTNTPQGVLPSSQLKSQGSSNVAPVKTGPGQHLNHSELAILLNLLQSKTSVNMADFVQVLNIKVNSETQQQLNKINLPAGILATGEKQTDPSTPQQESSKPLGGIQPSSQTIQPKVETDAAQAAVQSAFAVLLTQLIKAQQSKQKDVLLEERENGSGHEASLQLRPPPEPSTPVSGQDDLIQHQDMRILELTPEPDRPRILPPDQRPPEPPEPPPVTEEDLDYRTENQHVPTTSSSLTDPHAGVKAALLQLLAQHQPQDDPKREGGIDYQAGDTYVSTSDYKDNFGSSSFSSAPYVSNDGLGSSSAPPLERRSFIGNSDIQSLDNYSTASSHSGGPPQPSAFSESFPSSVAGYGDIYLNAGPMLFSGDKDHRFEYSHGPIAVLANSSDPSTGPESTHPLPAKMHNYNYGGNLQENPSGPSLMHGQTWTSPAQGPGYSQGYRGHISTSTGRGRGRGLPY
Chain of LIM domain kinase 1 (Homo sapiens) (P53667 whole entry, looked up, the tested form may be a part): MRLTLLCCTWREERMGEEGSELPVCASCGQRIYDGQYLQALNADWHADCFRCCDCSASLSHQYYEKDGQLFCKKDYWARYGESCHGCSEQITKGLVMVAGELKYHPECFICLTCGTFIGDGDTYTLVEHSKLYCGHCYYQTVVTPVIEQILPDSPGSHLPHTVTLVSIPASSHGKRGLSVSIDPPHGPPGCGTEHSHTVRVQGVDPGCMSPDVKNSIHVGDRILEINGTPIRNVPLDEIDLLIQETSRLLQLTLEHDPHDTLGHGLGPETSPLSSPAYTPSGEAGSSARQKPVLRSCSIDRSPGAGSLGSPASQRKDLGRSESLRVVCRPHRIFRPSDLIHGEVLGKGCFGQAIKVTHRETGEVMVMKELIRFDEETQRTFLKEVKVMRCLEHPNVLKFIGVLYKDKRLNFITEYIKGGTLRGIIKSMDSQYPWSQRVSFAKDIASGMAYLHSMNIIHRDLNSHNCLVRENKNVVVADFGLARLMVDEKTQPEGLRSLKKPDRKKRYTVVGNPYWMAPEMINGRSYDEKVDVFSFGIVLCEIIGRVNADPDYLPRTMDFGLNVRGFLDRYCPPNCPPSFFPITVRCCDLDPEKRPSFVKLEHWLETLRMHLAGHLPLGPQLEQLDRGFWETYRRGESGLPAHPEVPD
Chain of Tyrosine-protein kinase ABL1 (Homo sapiens), P00519 [E255K] (P00519 whole entry E255K): as the sequence (P00519 whole entry) above, with E255K counted along it
Chain of Sigma intracellular receptor 2 (Q5BJF2 whole entry): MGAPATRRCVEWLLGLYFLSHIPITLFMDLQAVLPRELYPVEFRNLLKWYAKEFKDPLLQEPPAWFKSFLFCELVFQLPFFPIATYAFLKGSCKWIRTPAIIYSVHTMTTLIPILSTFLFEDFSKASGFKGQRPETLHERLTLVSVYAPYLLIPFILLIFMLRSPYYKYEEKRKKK

Compound `COCCOc1nc(-c2ccc(Cl)nc2)nc2c1CN(C(=O)c1ncn3ccccc13)CC2` [THPP-1] has an inhibition [1] of 55.6%, a residual activity [2] of 93% and a residual activity [3] of 90%. The residual activity [4] was 100%, the residual activity [5] was 83% and the residual activity [6] was 100%. It also gave a residual activity [7] of 85%, an inhibition [8] of 10.8% and a residual activity [9] of 100%. It also gave a residual activity [10] of 100%, a residual activity [11] of 91% and a residual activity [12] of 86%. It also gave a residual activity [13] of 100%, a residual activity [14] of 100% and a residual activity [15] of 100%. For the same compound, the residual activity [16] was 100%, the residual activity [17] was 100% and the residual activity [18] was 100%. It also gave a residual activity [19] of 100%, a residual activity [20] of 97% and a residual activity [21] of 95%. For the same compound, the residual activity [22] was 100%, the residual activity [23] was 100% and the residual activity [24] was 100%. It also gave a residual activity [25] of 53%, an inhibition [26] of 16.8% and a residual activity [27] of 100%. It also gave a residual activity [28] of 100%, a residual activity [29] of 100% and a residual activity [30] of 68%. The residual activity [31] was 64%, the residual activity [32] was 100% and the residual activity [33] was 100%. It also gave a residual activity [34] of 100%, a residual activity [35] of 100% and a residual activity [36] of 100%. For the same compound, the residual activity [37] was 66%, the residual activity [38] was 100% and the residual activity [39] was 100%. The residual activity [40] was 91%, the residual activity [41] was 100% and the residual activity [42] was 93%. The residual activity [43] was 82%, the residual activity [44] was 100% and the residual activity [45] was 93%.

In the case of `CC(C)CC(=O)N1CCc2nc(-c3ccc(Br)cc3)nc(N(C)Cc3ccccc3)c2C1` [THPP-1-NC], the inhibition [1] is reported as 78.8%, the residual activity [2] is reported as 100% and the residual activity [3] is reported as 91%. It also gave a residual activity [4] of 100%, a residual activity [5] of 98% and a residual activity [6] of 100%. The residual activity [7] was 70%, the inhibition [8] was 17.5% and the residual activity [9] was 100%. The residual activity [10] was 100%, the residual activity [11] was 93% and the residual activity [12] was 89%. For the same compound, the residual activity [13] was 100%, the residual activity [14] was 100% and the residual activity [15] was 100%. For the same compound, the residual activity [16] was 100%, the residual activity [17] was 100% and the residual activity [18] was 100%. The residual activity [19] was 100%, the residual activity [20] was 89% and the residual activity [21] was 91%. It also gave a residual activity [22] of 100%, a residual activity [23] of 100% and a residual activity [24] of 100%. The residual activity [25] was 74%, the inhibition [26] was 29.5% and the residual activity [27] was 100%. For the same compound, the residual activity [28] was 100%, the residual activity [29] was 98% and the residual activity [30] was 66%. It also gave a residual activity [31] of 68%, a residual activity [32] of 100% and a residual activity [33] of 100%. For the same compound, the residual activity [34] was 100%, the residual activity [35] was 100% and the residual activity [36] was 100%. It also gave a residual activity [37] of 98%, a residual activity [38] of 100% and a residual activity [39] of 99%. It also gave a residual activity [40] of 78%, a residual activity [41] of 100% and a residual activity [42] of 100%. It also gave a residual activity [43] of 80%, a residual activity [44] of 100% and a residual activity [45] of 78%.
